Laboratory results from PubChem BioAssay AID330 (DTP/NCI, 2004).
“And” between values parts separate entries of the source, which are not always exact repeats. Equal entries are not always repeated. Inconclusive results and toxic doses are left out. The calls were made as follows: active = survival T/C of 150% or more; inactive = T/C below 125% in these data.

Test system: P388 leukemia ip, CD2F1 mice, survival T/C
Assay: NCI In Vivo Anticancer Drug Screen. Data for tumor model P388 Leukemia (intraperitoneal) in CD2F1 (CDF1) mice
Conditions: endpoint: median survival time, higher = longer survival
Outline: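 Mice carrying the transplanted tumor received test compound or vehicle. Survival was recorded in each group, and the value is the treated-group measurement divided by that of the vehicle-treated control group.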

[1] = dose: 50.0 mg/kg/injection, schedule: Q01DX009 (ip), vehicle: saline
[2] = dose: 100.0 mg/kg/injection, schedule: Q01DX001 (ip), vehicle: Klucel (hydroxypropylcellulose) (HPC)
[3] = dose: 100.0 mg/kg/injection, schedule: Q01DX009 (ip), vehicle: saline
[4] = dose: 200.0 mg/kg/injection, schedule: Q01DX009 (ip), vehicle: saline
[5] = dose: 50.0 mg/kg/injection, schedule: Q01DX009 (ip), vehicle: saline with Tween-80
[6] = dose: 100.0 mg/kg/injection, schedule: Q01DX009 (ip), vehicle: saline with Tween-80
[7] = dose: 200.0 mg/kg/injection, schedule: Q01DX009 (ip), vehicle: saline with Tween-80

Measured: T/C

CCN(CC)C(C)COC(=O)c1ccc(N)cc1 (configuration not stated)
inactive: dose: 12.5 mg/kg/injection, schedule: Q01DX009 (ip), vehicle: saline 86 % of control | dose: 12.5 mg/kg/injection, schedule: Q04DX003 (ip), vehicle: saline 95 % of control | dose: 25.0 mg/kg/injection, schedule: Q04DX003 (ip), vehicle: saline 91 % of control | [1] 100 % of control | dose: 50.0 mg/kg/injection, schedule: Q04DX003 (ip), vehicle: saline 91 % of control

Nc1n[nH]c(=O)n1N
inactive: [2] 106 % of control | dose: 200.0 mg/kg/injection, schedule: Q01DX001 (ip), vehicle: Klucel (hydroxypropylcellulose) (HPC) 100 % of control | dose: 400.0 mg/kg/injection, schedule: Q01DX001 (ip), vehicle: Klucel (hydroxypropylcellulose) (HPC) 107 % of control

CN1CCCC1c1ccc[n+](C)c1 (configuration not stated)
inactive: [1] 110 % of control and 108 % of control | [3] 110 % of control and 105 % of control | [4] 115 % of control and 113 % of control

CCOP(=O)(Nc1ccc(C)cc1)OCC
inactive: dose: 100.0 mg/kg/injection, schedule: Q01DX001 (ip), vehicle: saline 104 % of control | dose: 200.0 mg/kg/injection, schedule: Q01DX001 (ip), vehicle: saline 109 % of control | dose: 400.0 mg/kg/injection, schedule: Q01DX001 (ip), vehicle: saline 105 % of control

Nc1ccn(C2OC(CCl)C(O)C2O)c(=O)n1 (configuration not stated)
active: dose: 100.0 mg/kg/injection, schedule: Q01DX009 (ip), vehicle: Klucel (hydroxypropylcellulose) (HPC) 172 % of control | [3] 154 % of control | dose: 200.0 mg/kg/injection, schedule: Q01DX009 (ip), vehicle: Klucel (hydroxypropylcellulose) (HPC) 186 % of control | [4] 164 % of control | dose: 400.0 mg/kg/injection, schedule: Q01DX009 (ip), vehicle: saline 177 % of control
inactive: dose: 6.25 mg/kg/injection, schedule: Q01DX009 (ip), vehicle: Klucel (hydroxypropylcellulose) (HPC) 101 % of control | dose: 12.5 mg/kg/injection, schedule: Q01DX009 (ip), vehicle: Klucel (hydroxypropylcellulose) (HPC) 106 % of control

CNC(=O)OCC1=C(COC(=O)NC)C2OC1C(C(=O)OC)=C2C(=O)OC
inactive: dose: 3.13 mg/kg/injection, schedule: Q01DX009 (ip), vehicle: distilled water + Tween-80 91 % of control | dose: 12.5 mg/kg/injection, schedule: Q01DX009 (ip), vehicle: distilled water + Tween-80 94 % of control

CS(=O)CC1=NC(=N)N=C1CS(C)=O (configuration not stated)
inactive: dose: 60.0 mg/kg/injection, schedule: Q01DX005 (ip), vehicle: saline 100 % of control | dose: 120.0 mg/kg/injection, schedule: Q01DX005 (ip), vehicle: saline 102 % of control | dose: 240.0 mg/kg/injection, schedule: Q01DX005 (ip), vehicle: saline 100 % of control

COc1ccc(C23OCN(c4ccccc4)C2(c2ccc(OC)cc2)c2ccccc2N3C)cc1 (configuration not stated)
inactive: dose: 60.0 mg/kg/injection, schedule: Q01DX005 (ip), vehicle: saline with Tween-80 103 % of control | dose: 120.0 mg/kg/injection, schedule: Q01DX005 (ip), vehicle: saline with Tween-80 100 % of control | dose: 240.0 mg/kg/injection, schedule: Q01DX005 (ip), vehicle: saline with Tween-80 94 % of control

O=C(Nc1ccc(C2=NCCN2)c(O)c1)c1ccc(C(=O)Nc2ccc(C3=NCCN3)c(O)c2)cc1
inactive: dose: 50.0 mg/kg/injection, schedule: Q01DX005 (ip), vehicle: saline with Tween-80 99 % of control | dose: 100.0 mg/kg/injection, schedule: Q01DX005 (ip), vehicle: saline with Tween-80 103 % of control | dose: 200.0 mg/kg/injection, schedule: Q01DX005 (ip), vehicle: saline with Tween-80 107 % of control

O=P1(Oc2ccccc2)NC2CCCCC2N1 (configuration not stated)
inactive: dose: 12.5 mg/kg/injection, schedule: Q01DX005 (ip), vehicle: Klucel + Tween-80 95 % of control | dose: 25.0 mg/kg/injection, schedule: Q01DX005 (ip), vehicle: Klucel + Tween-80 97 % of control | dose: 50.0 mg/kg/injection, schedule: Q01DX005 (ip), vehicle: Klucel + Tween-80 95 % of control | [2] 94 % of control

CC1(CCl)Nc2ccccc2C(=O)N1c1ccc(Cl)cc1 (configuration not stated)
inactive: [5] 94 % of control | [6] 95 % of control | [7] 89 % of control

CCCCCCC(=O)/C=C/c1ccc(OC(=O)c2ccc(C)cc2)cc1
inactive: [5] 95 % of control | [6] 93 % of control | [7] 93 % of control
